# Read-outs that look alike come from different tables or passages of the source.
# What was measured:
# souris [1] = assay: Interaction with reserpine; assay type: in vivo; conditions: 32 mg/kg et 12'8 mg/kg i.p.
# Procedure: (§1) On a résumé ci-après les résultats des essais pharmacologiques qui ont été entrepris avec les produits selon la présente addition. Dans ces essais, les produits de formule I à étudier ont été administrés par voie intrapéritonéale, en suspension dans une solution aqueuse de gomme arabique, sous un volume de 20 ml/kg chez la souris mâle et sous un volume de 5 ml/kg chez le rat mâle.
# Quatre heures après l'injection intrapéritonéale de 2,5 mg/kg de réserpine, des lots de 6 souris reçoivent le CRL 40933.
# souris [2] = assay: Intergroup aggressiveness; assay type: in vivo; conditions: dose not stated
# Procedure: as §1
# Après avoir séjourné pendant 3 semaines dans chacune des moitiés d'une cage séparées par une cloison opaque, des groupes de 3 souris reçoivent le CRL 40933. 30 min plus tard, les deux groupes d'une même cage sont réunis par retrait de la cloison et on note le nombre de combats qui surviennent en 10 min.
# souris [3] = assay: Motility reduced by habituation to the enclosure; assay type: in vivo
# Procedure: as §1
# Après 18 h de séjour dans les actimètres, les souris (6 par dose, 12 témoins) reçoivent le CRL 40933. Elles sont aussitôt replacées dans leurs enceintes respectives et, 30 min plus tard, on enregistre leur motilité pendant 30 min.
# souris [4] = assay: Motility reduced by hypoxic aggression (acute hypobaric anoxia); assay type: in vivo; conditions: 128 mg/kg i.p.
# Procedure: as §1
# Une demi-heure après avoir reçu le CRL 40933, les souris (10 par dose, 20 témoins) sont soumises à une anoxie hypobare aiguë [dépression de 600 mm Hg (soit environ 8 x 10^4 pascals) en 90 s, puis détente de 45 s], puis elles sont placées en actimètre où leur motilité est enregistrée pendant 10 min.
# souris [5] = assay: Traction test; assay type: in vivo; conditions: 0,5 h after administration, dose not stated
# Procedure: as §1
# (§2) Les essais sont effectués sur des lots de 10 souris (par dose) 0,5 h après l'administration du CRL 40933.
# souris [6] = assay: Behavioural despair (forced immersion); assay type: in vivo; conditions: souris; 8 mg/kg, 32 mg/kg, mais surtout 128 mg/kg i.p.
# Procedure: as §1
# Une demi-heure après avoir reçu le CRL 40933, des lots de 10 souris par dose sont placés dans un espace restreint rempli d'eau sur une hauteur de 6 cm; on note la durée d'immobilité entre la 2e et la 6e minute suivant l'immersion.
# souris [7] = assay: Interaction with apomorphine, mouse; assay type: in vivo
# Procedure: as §1
# Des lots de 6 souris par dose reçoivent le CRL 40933 0,5 h avant l'injection sous-cutanée d'apomorphine administrée à la dose de 1 ou 16 mg/kg.
# souris [8] = assay: Spontaneous motility (actimeter); assay type: in vivo
# Procedure: as §1
# Une demi-heure, après avoir reçu le CRL 40933, les souris (6 par dose, 12 témoins) sont placées en actimètre où leur motilité est enregistrée pendant 30 min.
# homme = assay: Clinical trials; assay type: in vivo
# Description: Les études cliniques ont porté sur les troubles de la vigilance, de l'éveil et des états confusionnels, d'une part, et sur les troubles de l'affectivité, du contact et des dépressions, d'autre part.
# souris mâle [9] = assay: Pentobarbital-induced sleep duration; assay type: in vivo; conditions: dose 8 mg/kg i.p., 0,5 h before pentobarbital
# Description: Les composés selon l'invention se distinguent du benzhydrylsulfinylacétamide (CRL 40476) précité par une différence d'action vis-à-vis du sommeil barbiturique. […]. Cette différence d'action qui est intéressante sur le plan thérapeutique est illustrée par le tableau IV
# rats = assay: Interaction with amphetamine (stereotypies); assay type: in vivo; conditions: rat; amphétamine 2 mg/kg i.p.; doses used, not stated
# Procedure: as §1
# L'amphétamine (2 mg/kg)est injectée par voie intrapéritonéale à des lots de 6 rats, 30 min après l'administration de CRL 40933.
# souris [10] = assay: Four plates test; assay type: in vivo; conditions: 0,5 h after administration, dose not stated
# Procedure: as §1, §2
# souris mâles = assay: Global behaviour and reactivities, mouse; assay type: in vivo; conditions: souris
# Procedure: as §1
# (§3) Pour apprécier le comportement global et les réactivités, des lots de six animaux (souris mâles ou rats mâles) ont été observés avant administration de chaque produit, puis 15 min, 30 min, 1 h, 2 h, 3 h et 24 h après administration de chaque produit. Les résultats sont consignés dans le tableau III ci-après, […]
# [11] = Global behaviour and reactivities, mouse; assay type: in vivo, souris; conditions: mouse, in vivo, ip, souris, 24 h après administration, read-out: mortalité tardive
# Procedure: as §1, §3
# souris [12] = assay: Interaction with barbital (sleep); assay type: in vivo; conditions: dès la dose de 8 mg/kg i.p., barbital 220 mg/kg i.p.
# Procedure: as §1
# Une demi-heure après l'administration de CRL 40933, des lots de 10 souris reçoivent une injection intrapéritonéale de 220 mg/kg de barbital.
# SNC = assay: Essential activity on the CNS (Tableau I and conclusions of the neuropsychopharmacological study); assay type: in vivo
# Description: Dans le tableau I ci-après, on a consigné un certain nombre de composés selon la formule I de façon nullement limitative, en mentionnant l'activité essentielle sur le SNC.
# Les composés de formule I agissent tous sur le SNC. Les produits des exemples 1-3 et 7-8 sont des agents stimulants, en revanche les produits des exemples 4-6 sont des agents sédatifs.
# rats mâles = assay: Global behaviour and reactivities, rat; assay type: in vivo
# Procedure: as §1, §3
# rat = assay: Interaction with apomorphine, rat; assay type: in vivo; conditions: apomorphine 0,5 mg/kg s.c., dose not stated
# Procedure: as §1
# Le CRL 40933 est administré à des lots de 6 rats 0,5 h avant l'injection sous-cutanée de 0,5 mg/kg d'apomorphine.
# souris [13] = assay: Electroshock; assay type: in vivo; conditions: 32 mg/kg à 128 mg/kg i.p.
# Procedure: as §1, §2
# souris mâle [14] = assay: Toxicity, DL-0; assay type: in vivo; conditions: i.p.
# Procedure: as §1
# La toxicité a été étudiée chez la souris mâle. Les résultats relatifs à la DL-0 (dose minimale non mortelle) sont donnés dans le tableau II ci-après.
# souris [15] = assay: Interaction with oxotremorine; assay type: in vivo
# Procedure: as §1
# Le CRL 40933 est administré à des lots de 6 souris 0,5 h avant l'injection intrapéritonéale de 0,5 mg/kg d'oxotrémorine.
# souris [16] = assay: Asphyxic anoxia (gallamine triethiodide); assay type: in vivo; conditions: 128 mg/kg i.p., 30 min before triiodoéthylate de gallamine 32 mg/kg i.p.
# Procedure: as §1
# Des lots de 10 souris par dose reçoivent le CRL 40933 30 min avant l'administration intrapéritonéale de 32 mg/kg de triiodoéthylate de gallamine.
smiles,measurement,setting,value
"NC(=O)C[S+]([O-])C(c1ccccc1)c1ccc(Cl)cc1 (stereo not shown) [Exemple 7, 4-chlorobenzhydrylsulfinylacétamide]",ptôsis réserpinique,souris [1],sans modifier
same,hypothermie réserpinique,"souris [1]; 4 h after réserpine 2,5 mg/kg i.p.",s'oppose très faiblement
same,agressivité intergroupes (nombre de combats),souris [2],ne modifie pas nettement
same,reprise de l'activité chez la souris habituée à son enceinte,souris [3]; 2 mg/kg et 8 mg/kg i.p.,à peine perceptible
same,reprise de l'activité chez la souris habituée à son enceinte,souris [3]; 32 mg/kg à 128 mg/kg i.p.,net
same,récupération motrice après séjour bref dans une enceinte à pression réduite,souris [4],amélioration nette
same,déficit moteur (traction),souris [5],ne provoque pas de déficit moteur majeur
same,durée d'immobilité,souris [6],diminue
same,comportement de verticalisation et stéréotypies (apomorphine),souris [7]; 128 mg/kg i.p.,sans modifier
same,action hypothermisante de l'apomorphine,"souris [7]; 128 mg/kg i.p. 0,5 h before apomorphine 16 mg/kg s.c.",s'oppose
same,motilité spontanée,souris [8]; 2 mg/kg i.p. (lowest dose used),diminution de motilité
same,motilité spontanée,souris [8]; 32 mg/kg et 128 mg/kg i.p.,augmentation nette
same,action contre l'énurésie,homme,agissent efficacement
same,résultats en tant que médicaments de l'éveil,"homme; notamment vieillard, gélules ou comprimés de 100 à 200 mg, 1 à 3 par jour",excellents résultats
same,Action sur la durée du sommeil induit par le pentobarbital (50 mg/kg i.p.) effet,souris mâle [9],(a)
same,stéréotypies amphétaminiques,rats,ne modifie pas sensiblement
same,nombre de passages punis,souris [10],n'entraine pas d'augmentation nette
same,Observations (comportement global et réactivités),souris mâles; 512 mg/kg i.p.,"crampes abdominales, sédation et hypo-réactivité au toucher"
same,Observations (comportement global et réactivités),souris mâles; 1024 mg/kg i.p.,"crampes abdominales, sédation et hypo-réactivité au toucher, respiration dépri-mée"
same,Observations (comportement global et réactivités),souris mâles; 128 mg/kg i.p.,"excitation apparaissant 1,5 h après administration et durant 3 h - réactivité au toucher"
same,Observations (comportement global et réactivités),souris mâles; 256 mg/kg i.p.,"crampes abdominales, respiration déprimée, puis - excitation apparaissant 1,5 h après administration"
same,mortality at 24 h,[11]; 512 mg/kg i.p.,33%
same,mortality at 24 h,[11]; 1024 mg/kg i.p.,66%
same,durée du sommeil induit par le barbital,souris [12],diminue
same,Activité sur le SNC,SNC; in vivo,stimulant
same,conclusion of the neuropsychopharmacological study: main type of CNS effect,SNC; in vivo,effets de type stimulant
same,conclusion: effets de type antidépresseur,SNC; in vivo,effets de type antidépresseur qui sont faibles
same,conclusion: effets anticonvulsivants,SNC; souris mâle,effets anticonvulsivants
same,Observations (comportement global et réactivités),rats mâles; 16 mg/kg i.p.,mydriase 1 h après administration
same,Observations (comportement global et réactivités),rats mâles; 64 mg/kg i.p.,hypotonie musculaire pendant 3 h - respiration déprimée pendant 3 h - mydriase pendant 2 à 3 h
same,stéréotypies induites par l'apomorphine,rat,ne modifie pas
same,effets convulsivants de l'électrochoc,souris [13],s'oppose
same,DL-O,souris mâle [14],supérieure à 256 mg/kg
same,effet hypothermisant de l'oxotrémorine,"souris [15]; 128 mg/kg i.p., 0,5 h before oxotrémorine 0,5 mg/kg i.p.",s'oppose faiblement
same,signes de stimulation cholinergique périphérique dus à l'oxotrémorine,souris [15]; dose not stated,ne modifie pas
same,tremblements induits par l'oxotrémorine,souris [15]; dose not stated,ne sont pas influencés
same,délai d'apparition des convulsions et de la mort consécutives à une anoxie asphyxique,souris [16],diminue
